Experimental data taken from PubChem BioAssay (NCI).
Values joined by “and” are separate entries in the source; they are usually repeats but may differ in a detail not shown here. Identical values can stand only once.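 The compound was tested at five concentrations on cells cultured in 96-well plates, with a 48-hour exposure period. GI50 = concentration required for 50% inhibition of growth. TGI is the concentration that stops growth completely.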

Columns and labels:
Assay in all cases: DTP human tumour cell line panel, 48 h
[1] = system: 786-0 renal
[2] = system: A549 NSCLC
[3] = system: CAKI-1 renal
[4] = system: CCRF-CEM leukemia
[5] = system: M14 melanoma
[6] = system: NCI/ADR-RES ovarian
[7] = system: RPMI-8226 leukemia
[8] = system: SK-OV-3 ovarian
[9] = system: TK-10 renal
[10] = system: KM12 colon

Structure (SMILES) | GI50 [1] [µM] | TGI [1] | GI50 [2] [µM] | TGI [2] | GI50 [3] [µM] | TGI [3] | GI50 [4] [µM] | TGI [4] | GI50 [5] [µM] | TGI [5] | GI50 [6] [µM] | TGI [6] [µM] | GI50 [7] [µM] | TGI [7] | GI50 [8] [µM] | TGI [8] | GI50 [9] [µM] | TGI [9] | GI50 [10] [µM] | TGI [10] [µM]
CCN(CC)C(=S)SSC(C)C | 17.3 | 31.7 µM | 31.2 | > 100 µM | 5.99 | 19.2 µM | 4.26 | 30.8 µM | 6.1 | 20.6 µM | 16 | 35.7 | 1.94 | 18.4 µM | 30.3 | 95.7 µM | 20.3 | 38 µM |  | 
COc1ccc(-n2c(=S)sc3c(Cl)nc(C)nc32)c(OC)c1 | 4.42 | 20.4 µM | 4.45 | 15.8 µM | 6.16 | 19.3 µM | 2.66 | 7.45 µM | 1.84 | 4.05 µM | 13.2 | 72.9 | 3.45 | 14 µM | 14.3 | 27.3 µM | 4.66 | 18.7 µM | 3.33 | 11.5
N#C/C(=C\c1ccc2[nH]ccc2c1)C(=O)NCCCCNC(=O)/C(C#N)=C/c1ccc2[nH]ccc2c1 |  | > 31.6 µM |  | > 100 µM |  | > 31.6 µM |  | > 31.6 µM |  | > 31.6 µM |  | > 10 |  | > 10 µM |  | > 31.6 µM |  | > 31.6 µM |  | > 31.6
COc1cc(N2C(=O)[C@H](Cl)C2c2ccc(SC)cc2)cc(OC)c1OC (stereo partly specified) | 0.0456 | 1.83 µM | 0.463 | > 100 µM | 0.0484 | > 100 µM | 0.305 | > 100 µM |  |  | 0.0356 | > 100 | 0.348 | 10.5 µM | 0.588 | > 100 µM | 1.94 | > 100 µM | 0.0473 | 20.3
COC(=O)C(C(=O)C(=O)Nc1c(C)cccc1C(C)(C)C)c1nc2ccc(Cl)cc2[nH]c1=O (stereo unspecified) |  | > 100 µM |  | > 100 µM |  | > 100 µM |  | > 100 µM |  | > 100 µM |  | > 100 |  | > 100 µM |  | > 100 µM |  | > 100 µM |  | > 100
Oc1ccc(Cl)cc1C=Nc1cnc2ccccc2c1 |  | > 100 µM |  | > 100 µM |  | > 100 µM |  | 7.1 µM |  | > 100 µM |  | > 100 |  | 85.6 µM |  | > 100 µM |  | > 100 µM |  | > 100
Cc1cccc(C2NC(=O)c3ccccc3N2)c1 (stereo unspecified) |  | > 100 µM |  | > 100 µM |  | > 100 µM |  | > 100 µM |  | > 54.8 µM |  | > 47.2 |  | > 27 µM |  | > 44.6 µM |  | > 100 µM |  | > 100
COc1ccc(-n2cc(-c3ccc(OC)c(OC)c3)[nH]c2=O)cc1 | > 100 | > 100 µM | > 100 | > 100 µM | > 100 | > 100 µM | > 100 | > 100 µM | > 100 | > 100 µM | > 100 | > 100 | > 100 | > 100 µM | > 100 | > 100 µM | > 100 | > 100 µM | > 100 | > 100
C[C@@H]1C[C@@H]([C@H](O)CC2CC(=O)NC(=O)C2)C(=O)[C@@H](C)C1 | 0.186 | 3.31 µM and 3.56 µM | 0.204 | 1.76 µM and 1.73 µM | 0.188 | 5.17 µM and 1.83 µM | 0.0958 | 1.15 µM and 0.406 µM | 0.248 | 2.8 µM and 1.6 µM | 0.358 | 9.16 | 0.451 | 3.02 µM and 0.494 µM | 0.275 | 5.31 µM and 12.2 µM | 0.22 | 2.39 µM and 1.01 µM | 0.215 | 
N=C1CCCC1C(=S)SCCC(N)=O (stereo unspecified) |  | > 100 µM |  | > 100 µM |  | > 100 µM |  | > 100 µM |  | > 100 µM |  | > 100 |  | > 100 µM |  | > 100 µM |  | > 100 µM |  | > 100
Nc1cc2c3c(cccc3c1)C(=O)N(CCN1CCCC1)C2=O | 4.5 | > 55.7 µM | 1.79 | > 100 µM | 1.43 | 5.83 µM | 3.88 | > 35.6 µM | 3.92 | 21.7 µM | 3.62 | > 51.4 | 1.23 | 11.9 µM | 2.16 | 22.7 µM | 5.49 | 33.7 µM | 3.66 | 51.2
NC(N)=N/N=C\c1ccc(OCc2ccccc2)cc1 | 1.66 | 3.17 µM | 3.31 | 13.2 µM | 3.13 | 13.4 µM | 2.73 | 10 µM |  |  | 1.82 | 4.93 | 2.02 | 5.01 µM | 3.47 | 14.7 µM |  |  | 1.63 | 3.1
COc1ccc2c(c1)C(=O)c1c-2c(OCCCN(C)C)nc2cc(Br)ccc12 | 1.59 | 2.99 µM | 3.52 | 11.4 µM | 11 | 23.5 µM | 5.2 | 23.8 µM | 14.8 | 29 µM | 2.84 | 16.5 | 15.9 | 39.7 µM | 7.28 | 22.9 µM | 4.17 | 13.8 µM | 11.4 | 24.3
COc1ccc(-c2ccc(OC)c(OC)c2OC)cc1 | 8.23 | 82.2 µM | 5.74 | > 100 µM | 1.77 | > 100 µM | 2.19 | > 100 µM | 0.817 | > 77.8 µM | 0.529 | 5.38 | 3.27 | > 100 µM | 2.63 | 62 µM | 5.1 | > 100 µM | 0.767 | > 51.8
C[C@@]1(F)[C@H](O)[C@@H](CO)O[C@H]1n1ccc(=O)[nH]c1=O | > 100 | > 100 µM | > 100 | > 100 µM | > 100 | > 100 µM | > 100 | > 100 µM | > 100 | > 100 µM | > 100 | > 100 | > 100 | > 100 µM | > 100 | > 100 µM | > 100 | > 100 µM | > 100 | > 100
